Earlier results in patent US20260297106A1, “SPIROCYCLIC SUBSTITUTED OXOISOINDOLINYL PIPERIDINE-2,6-DIONE COMPOUND” (Bristol-Myers Squibb Company, priority 2023, published 2026).

How the values were obtained:
T and NK cell = conditions: preclinical and clinical studies; cited from earlier work
[1] = tested on: highly immunogenic syngeneic tumors; conditions: engineered mouse models; cited from earlier work

Nc1cccc2c1CN(C1CCC(=O)NC1=O)C2=O (centres unmarked) [lenalidomide]
T and NK cell functions (T and NK cell): augment T and NK cell functions | antitumor immune responses [1]: modestly increase antitumor immune responses
